Results published in patent publication US10766869B2, “Triazoles for the treatment of demyelinating dieases” (Vertex Pharmaceuticals Incorporated, priority 2015, dated 2020).
Read-outs that look alike come from different tables or passages of the source.

System: primary rat mixed cortical cells
Experiment: In vitro myelination assay (MBP positive myelin strands, fold myelin pixels above background)
Format: cell-based
Conditions: Rattus norvegicus; for fold induction at 1 µM: 1.0 μM compound; for fold induction at 10 µM: 10.0 μM compound
Outline: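 Read-out is total MBP-positive myelin strand pixels per well, detected by custom ridge-tracing software and reported as fold over untreated baseline. Primary P1 rat mixed cortical cells received compound (1.0 or 10.0 μM) for 14 days, with medium half-replaced on days 6 and 10. Standard deviation was taken across all replicates.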

[1] = relative to baseline of no added compound, read-out: Fold myelin pixels above background
[2] = relative to baseline of no added compound, read-out: Fold myelin pixels above background, 1.0 μM
[3] = relative to baseline of no added compound, read-out: Fold myelin pixels above background, 10.0 μM
[4] = read-out: Fold myelin pixels above background relative to baseline of no added compound

`N#Cc1cc(Nc2ncn(-c3ccc(F)c(F)c3)n2)cc(N2CCOCC2)c1` [Compound 668, 3-[[1-(3,4-difluorophenyl)-1,2,4-triazol-3-yl]amino]-5-morpholino-benzonitrile] gave a fold induction at 1 µM [1] of 1 to 10 and a fold induction at 10 µM [1] of 1 to 10.
With `Cc1cc(Nc2ncn(-c3cc(F)cc(F)c3)n2)cc(OC2CCN(C3COC3)CC2)c1` [Compound 433, 1-(3,5-difluorophenyl)-N-[3-methyl-5-[[1-(oxetan-3-yl)-4-piperidyl]oxy]phenyl]-1,2,4-triazol-3-amine] the fold induction at 1 µM [1] was 100 to 1000 and the fold induction at 10 µM [1] was 100 to 1000.
With `Fc1cc(F)cc(-n2cnc(Nc3cc(N4CC(N5CCOCC5)C4)cc(F)n3)n2)c1` [Compound 612, N-[1-(3,5-difluorophenyl)-1,2,4-triazol-3-yl]-6-fluoro-4-(3-morpholinoazetidin-1-yl)pyridin-2-amine] the fold induction at 1 µM [1] was ≤ 1 and the fold induction at 10 µM [1] was 10 to 100.
For `N#Cc1cc(Nc2ncn(-c3ccc(F)c(F)c3)n2)cc(N2CCN(C3COC3)CC2)c1` [Compound 656, 3-[[1-(3,4-difluorophenyl)-1,2,4-triazol-3-yl]amino]-5-[4-(oxetan-3-yl)piperazin-1-yl]benzonitrile], the fold induction at 1 µM [1] was 1 to 10 and the fold induction at 10 µM [1] was ≤ 1.
For `CCc1cc(Nc2ncn(-c3ccccc3)n2)cc(N2CCN(C3COC3)CC2)c1` [Compound 330, N-[3-ethyl-5-[4-(oxetan-3-yl)piperazin-1-yl]phenyl]-1-phenyl-1,2,4-triazol-3-amine], the fold induction at 1 µM [2] was 1000 to 10000 and the fold induction at 10 µM [3] was ≤ 1.
Work on `Cc1cc(Nc2ncn(-c3ccc(F)c(F)c3)n2)cc(N2CCN(C3COC3)CC2)c1` [Compound 386, 1-(3,4-difluorophenyl)-N-[3-methyl-5-[4-(oxetan-3-yl)piperazin-1-yl]phenyl]-1,2,4-triazol-3-amine] yielded a fold induction at 1 µM [1] of 100 to 1000 and a fold induction at 10 µM [1] of 1000 to 10000.
`Fc1cc(F)cc(-n2cnc(Nc3cc(Cl)cc(N4CCN(C5COC5)CC4)c3)n2)c1` [Compound 5, N-[3-chloro-5-[4-(oxetan-3-yl)piperazin-1-yl]phenyl]-1-(3,5-difluorophenyl)-1,2,4-triazol-3-amine] was tested, and the fold induction at 1 µM [2] was 1000 to 10000 and the fold induction at 10 µM [3] was ≤ 1.
Compound `Cc1cc(Nc2ncn(-c3cc(C)ncn3)n2)cc(N2CCN(C3COC3)CC2)c1` [Compound 111, N-[3-methyl-5-[4-(oxetan-3-yl)piperazin-1-yl]phenyl]-1-(6-methylpyrimidin-4-yl)-1,2,4-triazol-3-amine] has a fold induction at 1 µM [2] of 10 to 100 and a fold induction at 10 µM [3] of 100 to 1000.
In the case of `Fc1cc(Nc2ncn(-c3cc(F)cc(F)c3)n2)cc(N2CCN(C3COC3)CC2)c1` [Compound 112, 1-(3,5-difluorophenyl)-N-[3-fluoro-5-[4-(oxetan-3-yl)piperazin-1-yl]phenyl]-1,2,4-triazol-3-amine], the fold induction at 1 µM [2] is reported as 1000 to 10000 and the fold induction at 10 µM [3] is reported as 100 to 1000.
In the case of `Cc1cc(Nc2ncn(-c3cc(F)cc(F)c3)n2)cc(N2CCC(F)CC2)n1` [Compound 457, N-[1-(3,5-difluorophenyl)-1,2,4-triazol-3-yl]-2-(4-fluoro-1-piperidyl)-6-methyl-pyridin-4-amine], the fold induction at 1 µM [1] is reported as 1000 to 10000 and the fold induction at 10 µM [1] is reported as 1000 to 10000.
For `Fc1cc(Nc2ncn(-c3cccc(F)c3)n2)cc(N2CCOCC2)c1` [Compound 158, N-(3-fluoro-5-morpholino-phenyl)-1-(3-fluorophenyl)-1,2,4-triazol-3-amine], the fold induction at 1 µM [2] was 10 to 100 and the fold induction at 10 µM [3] was 100 to 1000.
In the case of `Fc1ccc(-n2cnc(Nc3cc(C4=CCOCC4)nc(C4CC4)c3)n2)cc1F` [Compound 3, 2-cyclopropyl-N-[1-(3,4-difluorophenyl)-1,2,4-triazol-3-yl]-6-(3,6-dihydro-2H-pyran-4-yl)pyridin-4-amine], the fold induction at 1 µM [2] is reported as 100 to 1000 and the fold induction at 10 µM [3] is reported as 1000 to 10000.
In the case of `CCOC(=O)N1CCN(c2cc(C)cc(Nc3ncn(-c4cc(F)cc(F)c4)n3)c2)CC1` [Compound 196, ethyl 4-[3-[[1-(3,5-difluorophenyl)-1,2,4-triazol-3-yl]amino]-5-methyl-phenyl]piperazine-1-carboxylate], the fold induction at 1 µM [2] is reported as ≤ 1 and the fold induction at 10 µM [3] is reported as ≤ 1.
In the case of `CCc1cc(Nc2ncn(-c3cccc(C#N)c3)n2)cc(N2CCN(C3COC3)CC2)c1` [Compound 734, 3-[3-[3-ethyl-5-[4-(oxetan-3-yl)piperazin-1-yl]anilino]-1,2,4-triazol-1-yl]benzonitrile], the fold induction at 1 µM [1] is reported as 1 to 10 and the fold induction at 10 µM [1] is reported as ≤ 1.
In the case of `Cc1cc(NCC2COCCN2C)cc(Nc2ncn(-c3cc(F)cc(F)c3)n2)c1` (centres unmarked) [Compound 1062, N1-[1-(3,5-difluorophenyl)-1,2,4-triazol-3-yl]-5-methyl-N3-[(4-methylmorpholin-3-yl)methyl]benzene-1,3-diamine], the fold induction at 1 µM [4] is reported as 10 to 100 and the fold induction at 10 µM [4] is reported as ≤ 1.
In the case of `Cc1cc(Nc2ncn(-c3cc(F)cc(F)c3)n2)cc(N2C[C@@H]3C[C@H]2CN3C2COC2)c1` [Compound 34, 1-(3,5-difluorophenyl)-N-[3-methyl-5-[(1S,4S)-2-(oxetan-3-yl)-2,5-diazabicyclo[2.2.1]heptan-5-yl]phenyl]-1,2,4-triazol-3-amine], the fold induction at 1 µM [2] is reported as 100 to 1000 and the fold induction at 10 µM [3] is reported as ≤ 1.
`Cc1cc(Nc2ncn(-c3ccccc3)n2)cc(N2CCN3C(=O)OCC3C2)c1` (centres unmarked) [Compound 227, 7-[3-methyl-5-[(1-phenyl-1,2,4-triazol-3-yl)amino]phenyl]-5,6,8,8a-tetrahydro-1H-oxazolo[3,4-a]pyrazin-3-one] showed a fold induction at 1 µM [2] of 100 to 1000 and a fold induction at 10 µM [3] of 10 to 100.
`Cc1cc(NCC(C)N2CC(C)OC(C)C2)cc(Nc2ncn(-c3cc(F)cc(F)c3)n2)c1` (centres unmarked) [Compound 882, N1-[1-(3,5-difluorophenyl)-1,2,4-triazol-3-yl]-N3-[2-(2,6-dimethylmorpholin-4-yl)propyl]-5-methyl-benzene-1,3-diamine] gave a fold induction at 1 µM [4] of 1 to 10 and a fold induction at 10 µM [4] of 1 to 10.
`Cc1cc(Nc2ncn(-c3cc(F)ccc3F)n2)cc(N2CCN(C3(C)COC3)CC2)c1` [Compound 469, 1-(2,5-difluorophenyl)-N-[3-methyl-5-[4-(3-methyloxetan-3-yl)piperazin-1-yl]phenyl]-1,2,4-triazol-3-amine] showed a fold induction at 1 µM [1] of 100 to 1000 and a fold induction at 10 µM [1] of 10 to 100.
`Cc1cc(Nc2ncn(-c3ccccc3)n2)cc(N2CCOCC2)c1` [Compound 45, N-(3-methyl-5-morpholino-phenyl)-1-phenyl-1,2,4-triazol-3-amine] gave a fold induction at 1 µM [2] of 1000 to 10000 and a fold induction at 10 µM [3] of 100 to 1000.
With `Cc1cc(Nc2ncn(-c3cc(F)cc(F)c3)n2)cc(N2CCC(C3CCOC3)C2)c1` (centres unmarked) [Compound 1083, 1-(3,5-difluorophenyl)-N-[3-methyl-5-(3-tetrahydrofuran-3-ylpyrrolidin-1-yl)phenyl]-1,2,4-triazol-3-amine] the fold induction at 1 µM [4] was 1 to 10 and the fold induction at 10 µM [4] was ≤ 1.
Compound `Cc1cc(Nc2ncn(-c3cc(F)cc(F)c3)n2)c(F)c(NC2CCOCC2)c1` [Compound 810, N3-[1-(3,5-difluorophenyl)-1,2,4-triazol-3-yl]-2-fluoro-5-methyl-N1-tetrahydropyran-4-yl-benzene-1,3-diamine] has a fold induction at 1 µM [4] of 1 to 10 and a fold induction at 10 µM [4] of 1 to 10.
With `Cc1cc(Nc2ncn(-c3cc(F)cc(F)c3)n2)cc(N2CCC3(COC3)C2)c1` [Compound 444, 1-(3,5-difluorophenyl)-N-[3-methyl-5-(2-oxa-7-azaspiro[3.4]octan-7-yl)phenyl]-1,2,4-triazol-3-amine] the fold induction at 1 µM [1] was ≤ 1 and the fold induction at 10 µM [1] was 1 to 10.
In the case of `Fc1cc(Nc2ncn(-c3ccc(F)c(F)c3)n2)cc(N2CCCC2)c1` [Compound 99, 1-(3,4-difluorophenyl)-N-(3-fluoro-5-pyrrolidin-1-yl-phenyl)-1,2,4-triazol-3-amine], the fold induction at 1 µM [2] is reported as ≤ 1 and the fold induction at 10 µM [3] is reported as ≤ 1.
`Cc1cc(Nc2ncn(-c3cnccn3)n2)cc([C@]2(C)CNC(=O)O2)c1` (single isomer, unassigned) [Compound 682] gave a fold induction at 1 µM [1] of 10 to 100 and a fold induction at 10 µM [1] of 10 to 100.
`CC(C)(C)N1CCN(c2cc(Nc3ncn(-c4cc(F)cc(F)c4)n3)cc(N3CCN(C(C)(C)C)CC3)c2)CC1` [Compound 573, N-[3,5-bis(4-tert-butylpiperazin-1-yl)phenyl]-1-(3,5-difluorophenyl)-1,2,4-triazol-3-amine] showed a fold induction at 1 µM [1] of 1 to 10 and a fold induction at 10 µM [1] of 1 to 10.
With `Cc1cc(Nc2ncn(-c3cc(F)cc(F)c3)n2)cc(C2CN(C3COC3)C(C)CO2)c1` (centres unmarked) [Compound 629, 1-(3,5-difluorophenyl)-N-[3-methyl-5-[5-methyl-4-(oxetan-3-yl)morpholin-2-yl]phenyl]-1,2,4-triazol-3-amine] the fold induction at 1 µM [1] was 10 to 100 and the fold induction at 10 µM [1] was ≤ 1.
In the case of `Cc1cc(Nc2ncn(-c3cc(F)cc(F)c3)n2)cc(N2CCN(C)CC2)c1` [Compound 37, 1-(3,5-difluorophenyl)-N-[3-methyl-5-(4-methylpiperazin-1-yl)phenyl]-1,2,4-triazol-3-amine], the fold induction at 1 µM [2] is reported as 100 to 1000 and the fold induction at 10 µM [3] is reported as ≤ 1.
Compound `Cc1cc(Nc2ncn(-c3cc(F)cc(F)c3)n2)nc(N2CCOCC2)c1` [Compound 560, N-[1-(3,5-difluorophenyl)-1,2,4-triazol-3-yl]-4-methyl-6-morpholino-pyridin-2-amine] has a fold induction at 1 µM [1] of 10 to 100 and a fold induction at 10 µM [1] of 100 to 1000.
Compound `CCc1cc(Nc2ncn(-c3ccc(F)c(F)c3)n2)cc(N2CC(N3CCOCC3)C2)c1` [Compound 198, 1-(3,4-difluorophenyl)-N-[3-ethyl-5-(3-morpholinoazetidin-1-yl)phenyl]-1,2,4-triazol-3-amine] has a fold induction at 1 µM [2] of 100 to 1000 and a fold induction at 10 µM [3] of 10 to 100.
In the case of `Cc1cc(Nc2ncn(-c3cc(F)cc(F)c3)n2)cc(N2CCC(N3CCOCC3)CC2)c1` [Compound 324, 1-(3,5-difluorophenyl)-N-[3-methyl-5-(4-morpholino-1-piperidyl)phenyl]-1,2,4-triazol-3-amine], the fold induction at 1 µM [2] is reported as 1 to 10 and the fold induction at 10 µM [3] is reported as 10 to 100.
